Our source for the IC50 values is ChEMBL document CHEMBL2375251, “Anticancer activity of novel hybrid molecules containing 5-benzylidene thiazolidine-2,4-dione” (Eur J Med Chem, 2013).

Holding throughout (assay type): functional, cell-based
One assay deals with HeLa. The assay is described as follows: Cytotoxicity against human HeLa cells after 4 days by Coulter counter analysis. Particulars: 96 h.
Another assay concerns CCRF-CEM. The assay is described as follows: Cytotoxicity against human CEM cells after 3 days by Coulter counter analysis. Particulars: 72 h.
A further assay relates to L1210. Kind of assay: Cytotoxicity against mouse L1210 cells after 2 days by Coulter counter analysis. Particulars: L1210, 48 h.
In the next assay the test system is FM3A. The assay is described as follows: Cytotoxicity against mouse FM3A cells after 2 days by Coulter counter analysis. Particulars: 48 h.

`Nc1cccc(/C=C2\SC(=O)N(Cc3ccc(Cl)cc3)C2=O)c1`: the half-maximal inhibitory concentration (IC50) (in general, the concentration that inhibits the measured activity by half) with HeLa was over 250 µM; in the assay on CCRF-CEM, over 250 µM; in the assay with L1210 it was 218 µM; in the assay with FM3A, 246 µM.

As for `N[C@@H](Cc1ccc(N(CCCl)CCCl)cc1)C(=O)O` [MELPHALAN], the results for the IC50 with CCRF-CEM and with FM3A were 3.5 µM and 3.6 µM, respectively.

For `C=C(Br)C(=O)Nc1ccc(/C=C2\SC(=O)N(Cc3cccc(F)c3)C2=O)cc1`, the 50% inhibitory concentration (IC50) with HeLa amounted to 5.9 µM; in the assay on CCRF-CEM, 3.2 µM; in the assay on L1210, 1.2 µM; with FM3A it was 4 µM.

For `Cc1ccc(CN2C(=O)S/C(=C\c3cccc(N)c3)C2=O)cc1`, the IC50 in the assay on HeLa was 98 µM; with CCRF-CEM, over 250 µM; with L1210, 176 µM; with FM3A, 158 µM.

`C=C(Br)C(=O)Nc1ccc(/C=C2\SC(=O)N(C)C2=O)cc1`: the IC50 in the assay on HeLa stood at 0.87 µM; in the assay with CCRF-CEM, 0.36 µM; in the assay on L1210, 0.19 µM; with FM3A, 0.75 µM.

Turning to `Nc1ccc(/C=C2\SC(=O)N(Cc3ccccc3)C2=O)cc1`, the half-maximal inhibitory concentration (IC50) in the assay on HeLa came to 46 µM; with CCRF-CEM it was 42 µM; with L1210, 38 µM; with FM3A, 24 µM.

As for `CCN1C(=O)S/C(=C\c2ccc(N)cc2)C1=O`, the 50% inhibitory concentration (IC50) in the assay with HeLa is 108 µM; in the assay with CCRF-CEM, 91 µM; in the assay on L1210 it was 82 µM; with FM3A it was 76 µM.

For `CC(C)(C)c1ccc(CN2C(=O)S/C(=C\c3cccc(N)c3)C2=O)cc1`, the concentration for half-maximal inhibition (IC50) in the assay on HeLa was found to be 145 µM; with CCRF-CEM it was 165 µM; in the assay with L1210, 223 µM; with FM3A it was 188 µM.

Take `Nc1ccc(/C=C2\SC(=O)N(Cc3ccc(F)cc3)C2=O)cc1`: the IC50 in the assay on HeLa was 186 µM; with CCRF-CEM, 111 µM; with L1210, 24 µM; in the assay on FM3A it was 36 µM.

In the case of `Nc1cccc(/C=C2\SC(=O)N(Cc3ccc(F)cc3)C2=O)c1`, the IC50 was 86 µM with HeLa, 87 µM in the assay on CCRF-CEM, 142 µM in the assay on L1210 and 140 µM with FM3A.

Regarding `Nc1cccc(/C=C2\SC(=O)N(Cc3cccc(F)c3)C2=O)c1`, the half-maximal inhibitory concentration (IC50) in the assay with HeLa is over 250 µM; in the assay with CCRF-CEM, 250 µM; in the assay with L1210, 199 µM; in the assay on FM3A it was over 250 µM.

On to `Nc1ccc(/C=C2\SC(=O)N(Cc3cccc(Cl)c3)C2=O)cc1`, for which the IC50 with HeLa was found to be 24 µM; with CCRF-CEM it was 18 µM; in the assay with L1210, 4.7 µM; in the assay on FM3A it was 10 µM.

For the compound `C=C(Br)C(=O)Nc1cccc(/C=C2\SC(=O)N(Cc3ccc(C)cc3)C2=O)c1`, the IC50 with HeLa came to 1.2 µM; with CCRF-CEM it was 1.2 µM; with L1210, 0.6 µM; in the assay on FM3A it was 1 µM.

On to `C=C(Br)C(=O)Nc1ccc(/C=C2\SC(=O)N(Cc3ccccc3)C2=O)cc1`, for which the IC50 in the assay with HeLa turned out to be 1 µM; in the assay with CCRF-CEM it was 2.3 µM; with L1210, 1.1 µM; in the assay with FM3A, 3 µM.

Turning to `C=C(Br)C(=O)Nc1ccc(/C=C2\SC(=O)N(Cc3cccc(Cl)c3)C2=O)cc1`, the half-maximal inhibitory concentration (IC50) stood at 8.9 µM in the assay with HeLa, 3.7 µM with CCRF-CEM, 3.4 µM in the assay with L1210 and 6.1 µM in the assay with FM3A.

As to `C=C(Br)C(=O)Nc1ccc(/C=C2\SC(=O)N(Cc3ccc(C)cc3)C2=O)cc1`, the IC50 was 8.9 µM in the assay with HeLa, 3.7 µM in the assay with CCRF-CEM, 3.4 µM in the assay with L1210 and 6.1 µM in the assay with FM3A.

`CN1C(=O)S/C(=C\c2ccc(N)cc2)C1=O`: the IC50 came to 97 µM with HeLa, 62 µM with CCRF-CEM, 99 µM in the assay on L1210 and 107 µM with FM3A.

As to `C=C(Br)C(=O)Nc1cccc(/C=C2\SC(=O)N(Cc3cccc(F)c3)C2=O)c1`, the half-maximal inhibitory concentration (IC50) in the assay with HeLa came out at 2.7 µM; with CCRF-CEM it was 0.69 µM; with L1210 it was 0.59 µM; with FM3A, 0.69 µM.

Turning to `C=C(Br)C(=O)Nc1ccc(/C=C2\SC(=O)N(Cc3ccc(C(F)(F)F)cc3)C2=O)cc1`, the concentration for half-maximal inhibition (IC50) in the assay on HeLa stood at 13 µM; in the assay with CCRF-CEM, 8 µM; in the assay with L1210, 12 µM; in the assay on FM3A it was 23 µM.

For `Nc1cccc(/C=C2\SC(=O)N(Cc3cccc(Cl)c3)C2=O)c1`, the IC50 came out at 250 µM in the assay with HeLa, 195 µM in the assay with CCRF-CEM, 211 µM with L1210 and 164 µM in the assay with FM3A.

Regarding `C=C(Br)C(=O)Nc1cccc(/C=C2\SC(=O)N(CCc3ccccc3)C2=O)c1`, the half-maximal inhibitory concentration (IC50) in the assay with HeLa amounted to 3.5 µM; in the assay on CCRF-CEM, 0.94 µM; in the assay with L1210 it was 1.3 µM; in the assay on FM3A, 2.2 µM.

For the compound `C=C(Br)C(=O)Nc1ccc(/C=C2\SC(=O)N(Cc3ccc(F)cc3)C2=O)cc1`, the IC50 in the assay on HeLa came to 2 µM; in the assay on CCRF-CEM, 2.4 µM; in the assay on L1210, 2.2 µM; in the assay with FM3A, 4.6 µM.

As to `Nc1ccc(/C=C2\SC(=O)N(Cc3ccc(Cl)cc3)C2=O)cc1`, the concentration for half-maximal inhibition (IC50) was 77 µM with HeLa, 87 µM in the assay with CCRF-CEM, 37 µM in the assay on L1210 and 60 µM in the assay with FM3A.

With `C=C(Br)C(=O)Nc1ccc(/C=C2\SC(=O)N(CCc3ccccc3)C2=O)cc1`, the half-maximal inhibitory concentration (IC50) is 4.5 µM in the assay on HeLa, 4.2 µM in the assay on CCRF-CEM, 2.9 µM with L1210 and 5.5 µM in the assay on FM3A.

`Nc1cccc(/C=C2\SC(=O)N(Cc3ccc(C(F)(F)F)cc3)C2=O)c1`: the IC50 in the assay with HeLa, in the assay with CCRF-CEM, with L1210 and with FM3A was over 250 µM in each case.

For `Cc1ccc(CN2C(=O)S/C(=C\c3ccc(N)cc3)C2=O)cc1`, the half-maximal inhibitory concentration (IC50) was over 250 µM with HeLa, over 250 µM in the assay with CCRF-CEM, 94 µM in the assay on L1210 and over 250 µM in the assay on FM3A.

Take `Nc1ccc(/C=C2\SC(=O)N(Cc3ccc(C(F)(F)F)cc3)C2=O)cc1`: the half-maximal inhibitory concentration (IC50) in the assay on HeLa was 96 µM; in the assay with CCRF-CEM it was 32 µM; with L1210 it was 6 µM; in the assay on FM3A, 134 µM.

Regarding `CC(C)(C)c1ccc(CN2C(=O)S/C(=C\c3ccc(N)cc3)C2=O)cc1`, the IC50 with HeLa came out at 53 µM; with CCRF-CEM, 66 µM; in the assay with L1210, 94 µM; with FM3A, 80 µM.

With `C=C(Br)C(=O)Nc1ccc(/C=C2\SC(=O)N(Cc3ccc(Cl)cc3)C2=O)cc1`, the IC50 with HeLa came out at 2.3 µM; in the assay with CCRF-CEM, 2.8 µM; with L1210, 3.4 µM; in the assay on FM3A it was 5.1 µM.

For `C=C(Br)C(=O)Nc1ccc(/C=C2\SC(=O)N(Cc3ccc(C(C)(C)C)cc3)C2=O)cc1`, the IC50 in the assay with HeLa turned out to be 2.7 µM; with CCRF-CEM, 0.83 µM; in the assay with L1210, 1.6 µM; with FM3A, 4 µM.

For `C=C(Br)C(=O)Nc1cccc(/C=C2\SC(=O)N(Cc3cccc(Cl)c3)C2=O)c1`, the IC50 in the assay on HeLa was determined as 2.5 µM; with CCRF-CEM, 1.4 µM; in the assay on L1210, 1.1 µM; with FM3A, 1.7 µM.

`C=C(Br)C(=O)Nc1cccc(/C=C2\SC(=O)N(Cc3ccc(Cl)cc3)C2=O)c1`: the IC50 with HeLa is 2.7 µM; in the assay on CCRF-CEM it was 1.4 µM; with L1210, 0.94 µM; with FM3A, 1.6 µM.

With `C=C(Br)C(=O)Nc1ccc(/C=C2\SC(=O)N(CC)C2=O)cc1`, the IC50 in the assay on HeLa was determined as 1.4 µM; in the assay on CCRF-CEM it was 0.87 µM; in the assay on L1210, 0.5 µM; with FM3A, 2.3 µM.

As for `Nc1ccc(/C=C2\SC(=O)N(Cc3cccc(F)c3)C2=O)cc1`, the IC50 was determined as 250 µM in the assay on HeLa, 116 µM in the assay with CCRF-CEM, 100 µM in the assay with L1210 and 121 µM in the assay on FM3A.

Consider `Nc1cccc(/C=C2\SC(=O)N(Cc3ccccc3)C2=O)c1`, for which the IC50 is over 250 µM in the assay on HeLa, over 250 µM in the assay on CCRF-CEM, 233 µM with L1210 and over 250 µM with FM3A.

For the compound `C=C(Br)C(=O)Nc1cccc(/C=C2\SC(=O)N(Cc3ccc(C(C)(C)C)cc3)C2=O)c1`, the IC50 was 2.8 µM in the assay on HeLa, 3 µM with CCRF-CEM, 3.2 µM with L1210 and 5.2 µM with FM3A.

As for `Nc1cccc(/C=C2\SC(=O)N(CCc3ccccc3)C2=O)c1`, the IC50 in the assay on HeLa stood at 250 µM; with CCRF-CEM, 106 µM; with L1210, 142 µM; with FM3A, 68 µM.

As for `Nc1ccc(/C=C2\SC(=O)N(CCc3ccccc3)C2=O)cc1`, the half-maximal inhibitory concentration (IC50) with HeLa was over 250 µM; with CCRF-CEM, over 250 µM; in the assay on L1210 it was 217 µM; in the assay on FM3A, 215 µM.
